According to publication PMC8883573, “New Insights Into the Function of Flavohemoglobin in Mycobacterium tuberculosis: Role as a NADPH-Dependent Disulfide Reductase and D-Lactate-Dependent Mycothione Reductase” (Frontiers in Cellular and Infection Microbiology, 2022):

Key:
trxB = trxB (Mycobacterium tuberculosis, UniProt P9WHH1); experiment: DTNB reduction, absorbance at […] nm; format: biochemical; settings: 5 mM DTNB, 250 µM NADPH, 100 mM potassium phosphate pH 7.0, 2 mM EDTA, 25 °C
[1] = test system: O=C(O)c1cc(SSc2ccc([N+](=O)[O-])c(C(=O)O)c2)ccc1[N+](=O)[O-]; experiment: purified protein; format: biochemical, Mycolicibacterium smegmatis; settings: pH 7.0

Chain of trxB (P9WHH1 2-335): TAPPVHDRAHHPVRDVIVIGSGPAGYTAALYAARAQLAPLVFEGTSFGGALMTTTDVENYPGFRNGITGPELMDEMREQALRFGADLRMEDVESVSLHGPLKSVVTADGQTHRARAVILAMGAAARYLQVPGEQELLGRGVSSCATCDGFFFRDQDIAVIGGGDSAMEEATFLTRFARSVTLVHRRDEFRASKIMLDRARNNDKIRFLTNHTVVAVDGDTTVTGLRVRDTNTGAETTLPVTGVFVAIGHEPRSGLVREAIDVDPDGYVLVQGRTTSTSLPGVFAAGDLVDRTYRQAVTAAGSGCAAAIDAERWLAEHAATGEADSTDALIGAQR

NC(=O)C1=CN([C@@H]2O[C@H](COP(=O)(O)OP(=O)(O)OC[C@H]3O[C@@H](n4cnc5c(N)ncnc54)[C@H](OP(=O)(O)O)[C@@H]3O)[C@@H](O)[C@H]2O)C=CC1 [NADPH]
DTNB reduction, absorbance at 412 nm (trxB; electron donor for DTNB reduction): NADPH-dependent reduction of DTNB by MtbFHb, MsFHbII, and trxB

MsFHbII (Mycolicibacterium smegmatis MC2 155)
Km [1]: 93.7 ± 7.6 µM

O=C(O)c1cc(SSc2ccc([N+](=O)[O-])c(C(=O)O)c2)ccc1[N+](=O)[O-] [DTNB, 5,5’-dithiobis-(2-nitrobenzoic acid)]
DTNB reduction, absorbance at 412 nm (trxB): NADPH-dependent reduction of DTNB by MtbFHb, MsFHbII, and trxB
